From PMC7391777, “Inhibition of acetyl-CoA carboxylase by spirotetramat causes growth arrest and lipid depletion in nematodes” (Scientific Reports, 2020) come the findings set out here.

The target of the test is T1, C. elegans ACC (POD-2) (Caenorhabditis elegans, UniProt H2L0M0).
T1 construct: native enzyme in total protein extract of C. elegans pellet, not purified
Briefly: ACC activity in total protein extract, radiolabeled sodium bicarbonate. Type of test: biochemical. Conditions: total protein extract of C. elegans.

T1 sequence (H2L0M0 1-2165): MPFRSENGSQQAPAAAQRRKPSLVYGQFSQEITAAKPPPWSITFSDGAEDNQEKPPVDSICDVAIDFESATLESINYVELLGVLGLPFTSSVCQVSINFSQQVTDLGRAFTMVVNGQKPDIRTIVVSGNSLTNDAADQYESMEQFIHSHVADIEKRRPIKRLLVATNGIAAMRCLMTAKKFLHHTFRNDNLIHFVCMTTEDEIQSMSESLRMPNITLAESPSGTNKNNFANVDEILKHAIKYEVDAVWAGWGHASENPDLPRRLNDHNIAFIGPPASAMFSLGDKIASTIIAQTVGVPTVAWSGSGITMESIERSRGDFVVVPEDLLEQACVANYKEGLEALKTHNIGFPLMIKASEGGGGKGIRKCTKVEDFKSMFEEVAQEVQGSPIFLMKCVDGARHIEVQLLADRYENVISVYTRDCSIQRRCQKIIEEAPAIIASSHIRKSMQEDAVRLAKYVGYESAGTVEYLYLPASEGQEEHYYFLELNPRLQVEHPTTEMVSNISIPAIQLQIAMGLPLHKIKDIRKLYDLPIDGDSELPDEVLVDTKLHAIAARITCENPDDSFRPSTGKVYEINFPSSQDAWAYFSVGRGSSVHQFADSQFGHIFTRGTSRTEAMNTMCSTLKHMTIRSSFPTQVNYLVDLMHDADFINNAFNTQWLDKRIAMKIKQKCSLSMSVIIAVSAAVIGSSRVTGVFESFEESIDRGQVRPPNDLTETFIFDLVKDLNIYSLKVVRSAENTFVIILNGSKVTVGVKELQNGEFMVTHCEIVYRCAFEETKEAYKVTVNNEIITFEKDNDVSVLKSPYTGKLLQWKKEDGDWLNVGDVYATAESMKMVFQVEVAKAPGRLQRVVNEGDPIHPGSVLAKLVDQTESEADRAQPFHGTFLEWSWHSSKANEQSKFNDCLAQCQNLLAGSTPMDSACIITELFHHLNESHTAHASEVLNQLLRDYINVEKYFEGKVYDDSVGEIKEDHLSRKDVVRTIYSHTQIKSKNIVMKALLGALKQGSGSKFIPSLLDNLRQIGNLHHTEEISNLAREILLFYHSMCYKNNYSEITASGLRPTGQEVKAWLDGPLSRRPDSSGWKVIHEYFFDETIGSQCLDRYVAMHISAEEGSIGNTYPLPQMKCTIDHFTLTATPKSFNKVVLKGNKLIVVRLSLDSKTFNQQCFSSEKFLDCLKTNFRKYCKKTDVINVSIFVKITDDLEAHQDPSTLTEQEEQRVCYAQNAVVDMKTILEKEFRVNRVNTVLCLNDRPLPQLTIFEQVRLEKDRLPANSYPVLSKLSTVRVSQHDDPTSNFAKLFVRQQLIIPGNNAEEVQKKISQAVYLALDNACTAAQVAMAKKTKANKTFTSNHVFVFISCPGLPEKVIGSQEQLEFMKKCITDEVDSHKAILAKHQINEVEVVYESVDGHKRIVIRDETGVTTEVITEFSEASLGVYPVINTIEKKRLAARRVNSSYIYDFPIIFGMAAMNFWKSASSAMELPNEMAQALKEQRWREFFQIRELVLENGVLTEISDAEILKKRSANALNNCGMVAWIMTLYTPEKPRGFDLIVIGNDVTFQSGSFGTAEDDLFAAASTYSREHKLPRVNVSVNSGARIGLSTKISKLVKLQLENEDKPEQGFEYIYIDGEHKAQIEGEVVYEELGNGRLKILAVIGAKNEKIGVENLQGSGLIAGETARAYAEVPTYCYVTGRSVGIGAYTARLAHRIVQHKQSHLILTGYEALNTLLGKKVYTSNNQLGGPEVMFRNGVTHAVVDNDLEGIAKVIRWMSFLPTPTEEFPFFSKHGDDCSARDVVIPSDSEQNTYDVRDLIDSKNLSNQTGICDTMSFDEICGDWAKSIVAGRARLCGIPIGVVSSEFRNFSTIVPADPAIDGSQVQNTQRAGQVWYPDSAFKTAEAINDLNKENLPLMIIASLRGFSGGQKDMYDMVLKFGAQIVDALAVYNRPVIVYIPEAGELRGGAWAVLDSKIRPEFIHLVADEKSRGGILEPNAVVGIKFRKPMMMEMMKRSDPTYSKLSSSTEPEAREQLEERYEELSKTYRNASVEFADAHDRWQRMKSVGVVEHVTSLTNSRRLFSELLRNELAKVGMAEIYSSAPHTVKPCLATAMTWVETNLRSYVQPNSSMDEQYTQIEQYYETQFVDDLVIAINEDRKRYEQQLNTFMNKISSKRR

As a reminder, the IC50 is the concentration needed to halve the response being measured. For the molecule `COC1CCC2(CC1)NC(=O)C(c1cc(C)ccc1C)=C2O` (stereo not shown) [SPT-enol], the IC50 was determined as 50 µM.
